Laboratory results reported in patent US20160109459A1, “Compositions And Methods For Heparan Sulfate As A Biomarker For Transplant Rejection” (Duke University, priority 2012, published 2016).

What was measured:
[1] = system: purified T cells from C57BL/6 mice stimulated with bone marrow-derived BALB/c DCs; test: Allogeneic T cell proliferation assay (3H-thymidine incorporation, IFN-γ ELISA); assay type: cell-based, mouse; details: for alloreactive T cell proliferation compared to media alone: WT BALB/c DCs + C57BL/6 T cells, 72 h then 3H-thymidine 16 h, HS 100 μg/mL, HSP70 5 μg/mL, C12-iE-DAP 1 μg/mL, L18-MDP 1 μg/mL
Protocol: Cells were co-cultured either alone (media) or in the presence of LPS (100 ng/mL), Pam3CSK4 (2 μg/mL), hyaluronan (HA) (100 μg/mL), sonicated-HA (sHA) (100 μg/mL), fibronectin (FN) (100 μg/mL), fibrinogen (Fbn) (100 μg/mL), heparan sulfate (HS) (100 μg/mL), HSP70 (5 μg/mL), HMGB1 (1 μg/mL), C12-iE-DAP (1 μg/mL), or L18-MDP (1 μg/mL) for 72 hours, and then pulsed ^3H-thymidine for 16 hours. Proliferation was determined by ^3H incorporation and results are expressed as cpm±SEM. Baseline alloreactivity is indicated by the dotted line; *p<0.05 compared with media alone. […] Results are representative of three independent experiments.
T cell proliferation assay: DCs were generated from bone marrow as previously described. (Yang, Y. (2004) Nat. Immunol. 5:508-15). CD3^+ T cells were isolated from B6 mice using a CD3 negative selection magnetic bead kit (Invitrogen, Carlsbad, United States). Proliferation assays were performed as previously described. (Brennan, T. V. et al. (2008) Transplantation 85:247-55).
Purified T cells from C57BL/6 mice were stimulated with bone marrow-derived DCs from BALB/c mice and their proliferation was measured by the incorporation of ^3H-thymidine. DAMPs tested included proteins—fibronectin (FN), fibrinogen (Fbn), heat shock protein 70 (HSP70), and high-mobility group protein B1 (HMGB1); and glucosaminoglycans—heparan sulfate (HS) and hyaluronan (HA). For comparison, two well-described PAMPs, lipopolysaccharide (LPS) and a synthetic tripalmitoylated lipopeptide (Pam3CSK4) that are ligands of the TLR4 homodimer and the TLR1/2 heterodimer, respectively, were tested. As nucleotide-binding domain, leucine-rich repeat containing receptors (NLRB) are another family of innate immune receptors, ligands of NLR1 (C12-iE-DAP) and NLR2 (L18-MDP) were further tested.
Next, to investigate whether HS enhanced proliferation of allogeneic T cells was due to the stimulation of TLRs on DCs or T cells, because MyD88 is a common adaptor protein involved in the signal transduction of all TLRs with the exception of TLR3^9, HS was tested against DCs or T cells that were deficient for MyD88. For this purpose, T cells from WT or MyD88^−/− C57BL/6 mice were stimulated with DCs from WT or MyD88^−/− BALB/c mice in an allogeneic proliferation assay in the presence of HS, LPS, Pam3CSK4, or media alone.
HS has been shown as a TLR4 ligand, (Johnson, G. B. et al., (2002) J. Immunol. 168:5233-39; Johnson, G. B., Brunn, G. J. & Platt, J. L. (2004) J. Immunol. 172:20-24). To determine whether the absence of TLR4 expression on stimulating DCs would reduce HS-induced alloreactive T cell proliferation equivalent to MyD88 deficiency, purified T cells from C57BL/6 mice were co-cultured with irradiated WT, TLR4^−/−, and MyD88^−/− BALB/c DCs and proliferation was measured by the incorporation of ^3H-thymidine.
Cytokine analysis: Cell culture supernatants were obtained from DC cultures or T cell proliferation assays and assayed for IL-6, IL-12 and IFN-γ by ELISA (BD Biosciences) according to the manufacturer's standard protocols. HEK 293 supernatants were tested for human IL-8 by ELISA (BioLegend, San Diego, United States).
Allogenic heart transplants were performed between C57BL/6 donors and (BALB/c x DBA.1)F1 recipients. Serum HS was measured by ELISA Immunohistologic staining for HS and CD3 was performed on heart tx tissue. Bone marrow derived dendritic cells (DCs) and purified T cells from WT-, MyD88- or TLR4-deficient mice were used in MLR assays to test for proliferation and cytokine production in response to HS. CD40 and CD80 expression on stimulated DCs was measured by FACS. T cell proliferation was determined by ^3H-thymidine incorporation and CFSE dye dilution assay. HEK293 NF-kB-luciferase reporter cell lines stably expressing CD14, MD2, and TLR4 or TLR2 were used in assays of HS activity.

[2] = system: BALB/c recipients of B10.D2 Allo-BM+LC (GVHD); test: Murine Allo-HSCT model of GVHD (B10.D2→BALB/c); assay type: in vivo, mouse
Protocol: BALB/c recipient of B10.D2 Allo-BM+LC were treated with subcutaneous injections of the HS mimetic, PG545 (20 mg/kg in PBS), or PBS control once weekly, beginning 1 day prior to Allo-HSCT. […] FIG. 9C is a graph showing survival analysis of Allo-BM+LC+PG545 (n=10) compared to Allo-BM+LC+PBS (n=10).
Antibodies and flow cytometry: Anti-CD40 (HM40-3), anti-CD80 (16-10A1), anti-Thy1.1 (OX-7), anti-Ly5.1 (A20) anti-IFN-γ (XMG1.2), rat IgG1 isotype (R3-34), and the BrdU Flow Kit (FITC-labeled) were from BD Biosciences (San Jose, Calif., USA). Intracellular IFN-γ staining was performed as previously described. […] For in vivo BrdU labeling, mice were injected with 50 μg BrdU/gm i.p. 1 hour prior to analysis. Collection of flow cytometric data was acquired using a FACSCanto (BD Biosciences), and events were analyzed using FloJo software (Tree Star, Inc., Ashland, United States). […]
Allo-HSCT: For Allo-HSCT, wild-type (WT) and TLR4−/− BALB/c mice received myeloablative total-body irradiation (8.5 Gy) followed by intravenous infusion of 1×10^7 B10.D2 or BALB/c T-cell depleted bone marrow (TCD-BM). […] To induce GVHD, 5×10^6 lymph node cells from inguinal, axillary, cervical and mesenteric lymph nodes of B10.D2 or BALB/c mice were injected intravenously in addition to TCD-BM.
In another model of acute GVHD, 5×10^6 lymph node cells and 1×10^7 TCD BM from C3H.SW were transferred to C57BL/6 recipients irradiated with 10 Gy. HSCT recipients of these two GVHD models then received either intraperitoneal (i.p.) injections of 2 mg of al-antitrypsin (A1AT, Aralast™, Baxter, Deerfield, United States) resuspended in 200 μL sterile phosphate-buffered saline (PBS), subcutaneous (s.c.) injections of 20 mg/kg PG545 (Progen Pharmaceuticals Limited, Queensland, Australia) in 200 μL PBS, or 200 μL PBS alone at the indicated intervals.
In this model, lethally irradiated BALB/c mice were transplanted with 1×10^7 T cell-depleted bone marrow (TCD-BM) and 5×10^6 lymphocytes (LCs) from B10.D2 mice (Allo-BM+LC). Control mice received B10.D2 TCD-BM only (Allo-BM only) or syngeneic BALB/c TCD-BM and 5×10^6 BALB/c LCs (Syn-BM+LC).

[3] = system: C57BL/6 recipients of C3H.SW TCD-BM and LCs (GVHD); test: Second GVHD model (C3H.SW→C57BL/6); assay type: in vivo, mouse; details: A1AT 2 mg i.p. every 3 days; p=0.032
Protocol: FIG. 7A is a graph showing serum HS concentrations at the indicated time points following Allo-HSCT (B10.D2→BALB/c; 1×10^7 B10.D2 TCD-BM and 5×10^6 B10.D2 LC) treated with A1AT (2 mg) or PBS every 3 days by i.p. injection, starting 1 day prior to transplantation; n=3 per data point, as determined by ELISA assay; *p<0.05. FIG. 7B is a graph showing survival and FIG. 7C is a graph showing GVHD clinical score of Allo-BM only (n=5) or Allo-BM+LC treated with A1AT (n=8) or PBS (n=5). Data is from one of two independent experiments with identical results. […] Survival of BALB/c recipients of Allo-BM+LC from B10.D2 donors (n=11) and TLR4^−/− BALB/c recipients of Allo-BM+LC from B10.D2 donors administered A1AT (n=8) or PBS (n=14) every 3 days by intraperitoneal injection, starting 1 day prior to transplantation.
In another model of acute GVHD, 5×10^6 lymph node cells and 1×10^7 TCD BM from C3H.SW were transferred to C57BL/6 recipients irradiated with 10 Gy. HSCT recipients of these two GVHD models then received either intraperitoneal (i.p.) injections of 2 mg of al-antitrypsin (A1AT, Aralast™, Baxter, Deerfield, United States) resuspended in 200 μL sterile phosphate-buffered saline (PBS), subcutaneous (s.c.) injections of 20 mg/kg PG545 (Progen Pharmaceuticals Limited, Queensland, Australia) in 200 μL PBS, or 200 μL PBS alone at the indicated intervals. […]

[4] = system: BALB/c DCs; test: DC maturation: surface expression of CD40 and CD80 by FACS; assay type: cell-based, mouse; details: 24 h; HS 100 μg/mL, Pam3CSK4 2 μg/mL
Protocol: FIG. 3A is a graph showing WT, TLR4^−/−, or MyD88^−/− BALB/c DCs (2×10^5/well) were stimulated with LPS (100 ng/mL), HS (100 μg/mL), or Pam3CSK4 (2 μg/mL), or left unstimulated (media) for 24 hours, and measured for surface expression of co-stimulatory molecules CD40 and CD80 by FACS analysis. FIGS. 3B and 3C are graphs showing WT, MyD88^−/−, and TLR4^−/− BALB/c cultured DCs were co-cultured with media alone, LPS, HS, or Pam3CSK4 as in (A) and culture supernatants were tested for IL-6 (B) and IL-12 (C) by ELISA. Data are representative of three independent experiments; *p<0.05 compared with media alone.
To investigate how activation of DCs by HS promoted the alloreactive T cell response, an as DC maturation and production of pro-inflammatory cytokines are key initial events in triggering adaptive immune responses, the ability of HS to upregulate DC expression of costimulatory molecules, CD40 and CD80, and pro-inflammatory cytokines, IL-6 and IL-12 was tested.
Antibodies and flow cytometry: Anti-CD40 (HM40-3), anti-CD80 (16-10A1), anti-Thy1.1 (OX-7), anti-Ly5.1 (A20) anti-IFN-γ (XMG1.2), rat IgG1 isotype (R3-34), and the BrdU Flow Kit (FITC-labeled) were from BD Biosciences (San Jose, Calif., USA). Intracellular IFN-γ staining was performed as previously described. (Brennan, T. V. et al. (2008) Transplantation 85:247-55). For in vivo BrdU labeling, mice were injected with 50 μg BrdU/gm i.p. 1 hour prior to analysis. Collection of flow cytometric data was acquired using a FACSCanto (BD Biosciences), and events were analyzed using FloJo software (Tree Star, Inc., Ashland, United States).

[5] = splenocytes six days after transplantation, vs PBS

polymyxin B [PMB, reference compound]
effect on LPS-induced proliferation ([1]; PMB 10 ug/mL, LPS 100 ng/mL): significant decrease

CC(C)CCC[C@@H](C)[C@H]1CC[C@H]2[C@@H]3CC[C@H]4C[C@@H](O[C@@H]5O[C@H](COS(=O)(=O)O)[C@@H](O[C@H]6O[C@H](COS(=O)(=O)O)[C@@H](O[C@H]7O[C@H](COS(=O)(=O)O)[C@@H](O[C@H]8O[C@H](COS(=O)(=O)O)[C@@H](OS(=O)(=O)O)[C@H](OS(=O)(=O)O)[C@H]8OS(=O)(=O)O)[C@H](OS(=O)(=O)O)[C@H]7OS(=O)(=O)O)[C@H](OS(=O)(=O)O)[C@H]6OS(=O)(=O)O)[C@H](OS(=O)(=O)O)[C@H]5OS(=O)(=O)O)CC[C@]4(C)[C@H]3CC[C@]12C [PG545, reference compound]
post-transplant serum HS levels compared to PBS ([2]; PG545 20 mg/kg s.c. once per week from one day prior to transplant): higher | rate of GVHD (survival analysis) ([2]; PG545 20 mg/kg s.c. weekly, PBS 29, p<0.001): 21 days | percentage of proliferating donor CD8 T cells (BrdU uptake) ([2]; post-transplant day 6, PG545 20 mg/kg s.c. weekly, PBS 12.9±2.0, n=3, p<0.05): 23.2±2.3

A1AT: α1-antitrypsin (Aralast, Baxter), serum serine protease inhibitor
GVHD pathology scores (ear skin) ([2]; 3 weeks post-transplant, vs PBS): significantly lower | survival (MST) ([2]; A1AT 2 mg i.p. every 3 days, PBS controls 28.0, p<0.001): 48.5 days | GVHD clinical score curve ([2]; Allo-BM+LC recipients, 10-point scale, p=0.03): significantly lower | survival in TLR4−/− recipients compared to PBS treated TLR4−/− mice ([2]; TLR4−/− BALB/c recipients of B10.D2 Allo-BM+LC, p=0.30): no further survival benefit | serum HS levels compared to PBS ([2]; days 9 and 14 following HSCT, A1AT 2 mg i.p. every 3 days from 1 day prior to transplant): significantly lower | BrdU incorporation by donor Thy1.1+ T cells [2, 5]: significantly reduced | IFN-γ production by donor Thy1.1+ T cells [2, 5]: significantly reduced | survival compared with PBS treated group [3]: significant survival benefit

CCCCCCCCCCCC(=O)N[C@H](CCC(=O)NC(CCCC(N)C(=O)O)C(=O)O)C(=O)O (some centres unmarked) [C12-iE-DAP, reference compound]
alloreactive T cell proliferation compared to media alone [1]: Neither of the NLR ligands tested produced a significant increase

Pam3CSK4 [reference compound]
upregulation of CD40 and CD80 on MyD88−/− DCs [4]: but not on MyD88^−/− DCs | upregulation of CD40 and CD80 on TLR4−/− DCs [4]: able to upregulate | upregulation of CD40 and CD80 on WT DCs [4]: able to upregulate

HSP70: heat shock protein 70 (Assay Designs), a DAMP [reference compound]
alloreactive T cell proliferation compared to media alone [1]: significantly increased
